Measured values from patent US7718391B2, “Assays for identifying modulators of rhomboid polypeptides” (Medical Research Council, priority 2001, dated 2010).
Read-outs that look alike come from different tables or passages of the source. Non-standard residues stand in square brackets, D forms with d. Residues, ends and D or L forms follow the SMILES beside them. *: point of attachment. Sta = CC(C)C[C@H](N)[C@@H](O)CC(=O)O; Isovaleryl = CC(C)CC(=O)*; Nle = CCCC[C@H](N)C(=O)O; Cbz = O=C(OCc1ccccc1)*

Tests used:
Rhomboid-1 = molecular target: T1, Rhomboid-1 (Drosophila melanogaster, UniProt P20350); test: Rhomboid-1 and Star dependent cleavage of GFP-Spitz in transfected COS cells (western blot of medium); assay type: cell-based
T1 construct: When co-expressed with Star and full-length Rhomboid-1 in the COS cell Spitz cleavage assay; expressed in transfected cells; host or cells: COS cells, pcDNA3.1 constructs, transient transfection
T1 sequence (P20350 1-355): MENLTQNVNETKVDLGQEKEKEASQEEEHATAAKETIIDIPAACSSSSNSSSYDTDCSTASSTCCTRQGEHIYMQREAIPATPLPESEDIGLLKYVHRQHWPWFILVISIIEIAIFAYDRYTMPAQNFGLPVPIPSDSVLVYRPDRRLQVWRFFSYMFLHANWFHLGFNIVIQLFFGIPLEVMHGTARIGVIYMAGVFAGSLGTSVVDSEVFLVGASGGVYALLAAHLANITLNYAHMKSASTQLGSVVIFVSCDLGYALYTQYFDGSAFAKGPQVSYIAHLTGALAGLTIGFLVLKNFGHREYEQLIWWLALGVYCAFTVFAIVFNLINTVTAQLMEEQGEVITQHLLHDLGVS
Method: COS cells were grown in DMEM medium (supplemented with 10% foetal calf serum), and transfected with FuGENE 6 Transfection Reagent (Roche). Cells were transfected in 35 mm culture wells with 25-250 ng of each construct and empty plasmid to bring the total DNA to 1 μg per well. 24-30 hours post-transfection the medium was replaced with serum-free medium; this was harvested 24 hours later and cells were lysed in SDS-sample buffer. GFP was detected in conditioned medium and cell lysates by western blot with a rabbit polyclonal antibody. For some experiments the serum-free medium was supplemented with the metalloprotease inhibitor batimastat (British Biotech) or ilomostat (Calbiochem). Cells were transfected as standard with 1 ng of Rhomboid-1 DNA (in 1 μg total DNA) and were then incubated in serum-free medium for 24 hours. The medium was then replaced with 0.5 ml serum free medium containing protease inhibitor at the indicated concentration and incubated for 1 hour. After 1 hour, the medium was collected, cleared by centrifugation, dialysed overnight against several changes of water and lyophilised. The resulting pellets were re-suspended in SDS sample buffer, boiled and analysed by Western blot. Transfections with a secreted form of Spitz were used in parallel to control for non-specific toxicity of the protease inhibitors or general inhibition of the secretory pathway. The proteolytic cleavage assay was recapitulated in a mammalian tissue culture system. Spitz was tagged with GFP near its N-terminus and transiently expressed in COS cells, in the presence or absence of Star and/or Rhomboid-1. The accumulation of the soluble extracellular fragment of GFP-Spitz in the cell medium was then measured by western blot.

[1] = system: artificially truncated form of Spitz; test: Control: expression or secretion of an artificially truncated (secreted) form of Spitz; assay type: cell-based, Drosophila; conditions: this concentration (10-100:M)
Method: Cells were transfected as standard with 1 ng of Rhomboid-1 DNA (in 1 μg total DNA) and were then incubated in serum-free medium for 24 hours. The medium was then replaced with 0.5 ml serum free medium containing protease inhibitor at the indicated concentration and incubated for 1 hour. After 1 hour, the medium was collected, cleared by centrifugation, dialysed overnight against several changes of water and lyophilised. The resulting pellets were re-suspended in SDS sample buffer, boiled and analysed by Western blot. Transfections with a secreted form of Spitz were used in parallel to control for non-specific toxicity of the protease inhibitors or general inhibition of the secretory pathway.

[2] = system: uncleavable Spitz-TGFα chimera with Spitz residue G143 restored in the TGFα TMD
[3] = system: uncleavable Spitz-TGFα chimera (Spitz with residues 140-160 replaced by the equivalent residues from TGFα, with the TGFα C-terminus)
[4] = molecular target: uncleavable Spitz-TGFα chimera (Spitz with residues 140-160 replaced by the equivalent residues from TGFα, with the TGFα C-terminus); remark: listed apart in the source
[5] = molecular target: uncleavable Spitz-TGFα chimera with Spitz residue G143 restored in the TGFα TMD; remark: listed apart in the source

O=c1oc(Cl)c(Cl)c2ccccc12 [3,4-DCI]
Rhomboid activity (summary statement) (Rhomboid-1): inhibit | inhibition of Rhomboid activity, standard cleavage assay with panel of inhibitors (Rhomboid-1; 10-100:M): strongly inhibited | expression or secretion of an artificially truncated form of Spitz (extracellular domain) [1]: did not effect

CCOC(=O)[C@H]1O[C@@H]1C(=O)N[C@@H](CC(C)C)C(=O)NCCC(C)C [E64d]
inhibition of Rhomboid activity, standard cleavage assay with panel of inhibitors (Rhomboid-1; 50:M): No inhibition

O=C(O)/C(S)=C/c1ccc(I)cc1 [PD150606]
inhibition of Rhomboid activity, standard cleavage assay with panel of inhibitors (Rhomboid-1; concentration not given): No inhibition

Cc1ccc(S(=O)(=O)N[C@@H](Cc2ccccc2)C(=O)CCl)cc1 [TPCK]
Rhomboid activity (summary statement) (Rhomboid-1): inhibit | inhibition of Rhomboid activity, standard cleavage assay with panel of inhibitors (Rhomboid-1; 10-100:M): strongly inhibited | expression or secretion of an artificially truncated form of Spitz (extracellular domain) [1]: did not effect

CCCC[C@@H](C=O)NC(=O)[C@H](CC(C)C)NC(=O)[C@H](CC(C)C)NC(=O)OCc1ccccc1 [gamma secretase inhibitor I] (Cbz-Leu-Leu-[Nle]-aldehyde)
inhibition of Rhomboid activity, standard cleavage assay with panel of inhibitors (Rhomboid-1; 25:M): No inhibition

CNC(=O)[C@H](Cc1c[nH]c2ccccc12)NC(=O)[C@@H](CC(=O)NO)CC(C)C [ilomostat]
Rhomboid-1-dependent cleavage of Spitz (Rhomboid-1; concentration not given): insensitive | inhibition of Rhomboid activity, standard cleavage assay with panel of inhibitors (Rhomboid-1; concentration not given): No inhibition

CC(=O)N[C@@H](CC(C)C)C(=O)N[C@@H](CC(C)C)C(=O)N[C@H](C=O)CCCNC(=N)N [leupeptin]
inhibition of Rhomboid activity, standard cleavage assay with panel of inhibitors (Rhomboid-1; 100:M): No inhibition

CC(C)CC(=O)N[C@H](C(=O)N[C@H](C(=O)N[C@@H](CC(C)C)[C@@H](O)CC(=O)N[C@@H](C)C(=O)N[C@@H](CC(C)C)[C@@H](O)CC(=O)O)C(C)C)C(C)C [pepstatin A] (Isovaleryl-VV[Sta]A[Sta]-OH)
inhibition of Rhomboid activity, standard cleavage assay with panel of inhibitors (Rhomboid-1; 50:M): No inhibition

Drosophila Rhomboid-2
protease activity against the TGFα TMD with a restored G143 [2]: did cleave when only G143 was added back | protease activity against the uncleavable form of Spitz [3]: they could not cleave the TGFα TMD

Drosophila Rhomboid-3
protease activity against the TGFα TMD with a restored G143 [2]: did cleave when only G143 was added back | protease activity against the uncleavable form of Spitz [3]: they could not cleave the TGFα TMD

B1: Human RHBDL2 (protein)
chain: MNLNMGREMKEELEEEEKMREDGGGKDRAKSKKVHRIVSKWMLPEKSRGTYLERANCFPPPVFIISISLAELAVFIYYAVWKPQKQWITLDTGILESPFIYSPEKREEAWRFISYMLVHAGVQHILGNLCMQLVLGIPLEMVHKGLRVGLVYLAGVIAGSLASSIFDPLRYLVGASGGVYALMGGYFMNVLVNFQEMIPAFGIFRLLIIILIIVLDMGFALYRRFFVPEDGSPVSFAAHIAGGFAGMSIGYTVFSCFDKALLKDPRFWIAIAAYLACVLFAVFFNIFLSPAN
protease activity against the uncleavable form of Spitz [4]: they could not cleave the TGFα TMD | protease activity against the TGFα TMD with a restored G143 [5]: did cleave when only G143 was added back
